# Literature values as cited in patent publication US7432394B2, “Resolution of α-(phenoxy) phenylacetic acid derivatives with naphthyl-alkylamines” (Metabolex, Inc., priority 2005, dated 2008).
# Target: cytochrome P450 2C9 (Homo sapiens, UniProt P11712)
# Sequence (P11712 whole entry): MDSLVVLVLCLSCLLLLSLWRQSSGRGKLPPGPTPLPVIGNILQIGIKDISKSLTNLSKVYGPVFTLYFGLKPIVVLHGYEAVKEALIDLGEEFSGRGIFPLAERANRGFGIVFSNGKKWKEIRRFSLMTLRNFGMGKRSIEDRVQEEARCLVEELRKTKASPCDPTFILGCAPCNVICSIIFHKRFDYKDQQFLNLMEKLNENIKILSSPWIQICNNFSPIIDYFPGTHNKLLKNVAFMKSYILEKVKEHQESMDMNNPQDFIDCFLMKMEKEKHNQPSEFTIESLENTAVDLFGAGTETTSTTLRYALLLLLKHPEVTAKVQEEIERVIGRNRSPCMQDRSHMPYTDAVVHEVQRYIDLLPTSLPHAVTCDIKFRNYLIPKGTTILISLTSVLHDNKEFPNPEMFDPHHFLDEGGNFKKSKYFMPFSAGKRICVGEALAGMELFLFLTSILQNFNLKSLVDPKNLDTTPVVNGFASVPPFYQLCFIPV
ability to inhibit cytochrome P450 2C9 compared to the (+)-enantiomer (fold less active than the (+)-enantiomer of halofenic acid),"inhibition of cytochrome P450 2C9 (racemic acid, result in words)",SMILES
about twenty-fold less active,,"O=C(O)C(Oc1cccc(C(F)(F)F)c1)c1ccc(Cl)cc1 (single isomer, unassigned; (-)) [(−)-enantiomer of halofenic acid, (−)-4-chloro-α-(3-trifluoromethylphenoxy)phenylacetic acid]"
,inhibits cytochrome P450 2C9,"O=C(O)C(Oc1cccc(C(F)(F)F)c1)c1ccc(Cl)cc1 (racemic) [halofenic acid, (4-chlorophenyl)(3-trifluoromethylphenoxy)acetic acid]"
